In patent publication US11185593B2, “Alkylating agent for alkylating target with driver oncogene mutation” (Chiba Prefecture, priority 2013, dated 2021):

Experiments:
[1] = Body weight and health condition of treated nude mice; format: in vivo; conditions: nude mice with SW480 cells; FIG. 15; seco CBI 8.4 mmol
Description: The below-mentioned 3 types of PBS solutions containing each type of cells were subcutaneously transplanted into the femurs of nude mice (i.e., HT29 into 7 mice, LS180 into 7 mice, and SW480 into 6 mice), and thereafter, at a time point in which a tumor adhered to the living body of each mouse and the tumor volume became approximately 100 mm^3, a drug was prepared with a composition of 3.4 mmol KR12 (1.36 mM KR12 dissolved in 2.5 μL of DMSO and 197.5 μL of PBS), or of a DMSO/PBS control (2.5 μL of DMSO and 197.5 μL of PBS). The prepared drug was subjected to sonication for 10 minutes, and 200 μL of the drug was administered to each mouse via the caudal vein thereof. The body weight and the tumor size were measured once three days, and the size of the tumor was measured by the method of 0.52×L×W×D(1/6×π×L×W×D).
Using, as controls, PIP-indole-seco-CBI (KR13) not recognizing a codon 12 mutation and 8.4 mmol seco CBI (3.36 mM CBI dissolved in 2.5 μL of DMSO and 197.5 μL of PBS), instead of the DMSO/PBS control, an experiment was carried out by the same method as that of the above section 11.

MDA-MB-231 cells = test: Cytotoxicity test, Cell Counting Kit-8, 72 hours; format: cell-based; conditions: Homo sapiens, MDA-MB-231, breast cancer
Description: The experiment was carried out in the same manner as that in the case of using KR12. The cells used in the experiment were Kelly cells, SK-N-SH cells, IMR-32 cells, SK-N-AS cells, and MDA-MB-231 cells. These cells were cultured in a DMEM, 10% FBS and 1% Pen/St medium, and in an RPMI1640, 10% FBS and 1% Pen/St medium, respectively. The cells of each type were seeded in each well of a 96-well plate at a cell density of 1000 cells/50 μl/well, and were then cultured under conditions of 37° C., 5% CO2, and saturated humidity for 24 hours. Thereafter, a reagent was diluted with a medium (final concentration: 1, 3, 10, 30, and 100 nM), and the diluted reagent was then added to the cultured cells in an amount of 50 μl/well, and the obtained mixture was then blended. The thus obtained mixture was cultured again under conditions of 37° C., 5% CO2, and saturated humidity for 72 hours. […] The absorbance was measured using Microplate Reader MTP-310 Lab (COLONA ELECTORIC), and the IC50 value was then calculated.
The experiment was carried out in the same manner as that in the case of using KR12. […] The absorbance was measured using Microplate Reader MTP-310 Lab (COLONA ELECTORIC), and the IC50 value was then calculated.

MCF7 cells = test: Cytotoxicity test, Cell Counting Kit-8, 72 hours; format: cell-based; conditions: Homo sapiens, MCF7, breast cancer, PIK3CA E545K, FIG. 27A
Description: (§1) The experiment was carried out in the same manner as that in the case of using KR12. The cells used in the experiment were MCF7 cells and MDA-MB-231 cells. These cells were cultured in a DMEM, 10% FBS and 1% Pen/St medium, and in an RPMI1640, 10% FBS and 1% Pen/St medium, respectively. The cells of each type were seeded in each well of a 96-well plate at a cell density of 1000 cells/50 μl/well, and were then cultured under conditions of 37° C., 5% CO2, and saturated humidity for 24 hours. Thereafter, a reagent was diluted with a medium (final concentration: 1, 3, 10, 30, and 100 nM), and the diluted reagent was then added to the cultured cells in an amount of 50 μl/well, and the obtained mixture was then blended. The thus obtained mixture was cultured again under conditions of 37° C., 5% CO2, and saturated humidity for 72 hours. Thereafter, Cell Counting Kit-8 (DOJINDO) was added to the obtained culture in an amount of 10 μl/well, and the thus obtained mixture was blended and was then cultured under conditions of 37° C., 5% CO2, and saturated humidity for 2 hours. The absorbance was measured using Microplate Reader MTP-310 Lab (COLONA ELECTORIC), and the IC50 value was then calculated.

IMR-32 cells = test: Cytotoxicity test, Cell Counting Kit-8, 72 hours; format: cell-based; conditions: Homo sapiens
Description: as §1, with “Kelly cells, SK-N-SH cells, IMR-32 cells, SK-N-AS cells,” for “MCF7 cells”
as §1, with “IMR-32” for “MCF7”, “TGW” for “MDA-MB-231”

TGW cells = test: Cytotoxicity test, Cell Counting Kit-8, 72 hours; format: cell-based; conditions: TGW cells, 1 to 100 nM, FIG. 33
Description: as §1, with “IMR-32” for “MCF7”, “TGW” for “MDA-MB-231”

LS180 cells = test: Cytotoxicity test, WST-8 (cell counting kit-8), 48 hours; format: cell-based, human; conditions: LS180 cells
Description: Using LS180 colon cell line, the cells were seeded in each well of a 96-well microplate, resulting in a cell density of 3000 to 5000 cells/well, and they were then cultured overnight. On the following day, KR12 recognizing a codon 12 mutation, WT recognizing wild-type KRAS, and C12-Dp having the same structure as that of KR12, to which an alkylating agent had not been added, were each added to the cultured cells in concentrations of 1 nM, 10 nM, 30 nM, 100 nM, 300 nM, and 1 μM, and were then treated for 48 hours. Thereafter, a WST-8 reagent was added to each well, using cell counting kit-8 (DOJINDO), and the obtained mixture was then reacted for 2 hours. After that, the number of cells was counted at a wavelength of 450 nm according to a colorimetric analysis method using a microplate reader. The method of counting the number of cells comprises: 1) obtaining the mean value of the medium alone, 2) subtracting the mean value of the medium from each well, 3) obtaining the mean value of DMSO, 4) dividing the medium-subtracted value by the mean value of DMSO and then multiplying by 100, 5) obtaining the mean value of each treatment group and a standard deviation, and then preparing a graph. The calculation formula of IC50 is the following: IC50=10 (LOG (A/B)×(50−C)/(D−C)+LOG (B)), wherein A: a higher concentration of two concentrations sandwiching 50%, B: a lower concentration of two concentrations sandwiching 50%, C: inhibitory percentage at B, and D: inhibitory percentage at A.
Using colon cancer and pancreatic cancer cell lines, the cells were seeded in each well of a 96-well microplate, resulting in a cell density of 3000 to 5000 cells/well, and they were then cultured overnight. On the following day, the cells of each type were treated with KR12 recognizing a codon 12 mutation in concentrations of 1 nM, 10 nM, 30 nM, 100 nM, 300 nM, and 1 μM for 48 hours. Thereafter, a WST-8 reagent was added to each well, using cell counting kit-8, and the obtained mixture was then reacted for 2 hours. After that, the number of cells was counted at a wavelength of 450 nm according to a colorimetric analysis method using a microplate reader. The method of counting the number of cells comprises: 1) obtaining the mean value of the medium alone, 2) subtracting the mean value of the medium from each well, 3) obtaining the mean value of DMSO, 4) dividing the medium-subtracted value by the mean value of DMSO and then multiplying by 100, 5) obtaining the mean value of each treatment group and a standard deviation, and then preparing a graph. […]

Kelly cells = test: Cytotoxicity test, Cell Counting Kit-8, 72 hours; format: cell-based; conditions: ALK F1174L neuroblastoma
Description: as §1, with “Kelly cells, SK-N-SH cells, IMR-32 cells, SK-N-AS cells,” for “MCF7 cells”

SK-N-AS cells = test: Cytotoxicity test, Cell Counting Kit-8, 72 hours; format: cell-based; conditions: Homo sapiens, wild-type ALK neuroblastoma
Description: as §1, with “Kelly cells, SK-N-SH cells, IMR-32 cells, SK-N-AS cells,” for “MCF7 cells”

SK-N-SH cells = test: Cytotoxicity test, Cell Counting Kit-8, 72 hours; format: cell-based; conditions: Homo sapiens, ALK F1174L neuroblastoma
Description: as §1, with “Kelly cells, SK-N-SH cells, IMR-32 cells, SK-N-AS cells,” for “MCF7 cells”

## Oc1cc2c(c3ccccc13)C(CCl)CN2 (stereo not shown) [seco-CBI, 1-chloromethyl-5-hydroxy-1,2-dihydro-3H-benzo[e]indole]
[1]
  tendency of body weight reduction: the tendency of body weight reduction, which was observed

## CC(=O)Nc1cc(C(=O)Nc2cc(C(=O)Nc3cn(C)c(C(=O)Nc4cc(C(=O)NCCC(=O)Nc5cn(C)c(C(=O)Nc6cn(C)c(C(=O)NCCCC(=O)Nc7cc(C(=O)Nc8cc(C(=O)NCCC(=O)Nc9cn(C)c(C(=O)Nc%10cc(C(=O)Nc%11ccc%12[nH]c(C(=O)N%13CC(CCl)c%14c%13cc(O)c%13ccccc%14%13)cc%12c%11)n(C)c%10)n9)n(C)c8)n(C)c7)n6)n5)n(C)c4)n3)n(C)c2)n(C)c1 (stereo not shown) [P3A-E5K-1]
MDA-MB-231 cells; wild-type PIK3CA gene, FIG. 27B
  IC50: > 100 nM
MCF7 cells
  IC50: 53.8 nM

## CC(=O)Nc1cc(C(=O)Nc2cn(C)c(C(=O)Nc3cc(C(=O)NCCC(=O)Nc4cn(C)c(C(=O)Nc5cc(C(=O)NCCCC(=O)Nc6cc(C(=O)Nc7cc(C(=O)NCCC(=O)Nc8cc(C(=O)Nc9ccc%10[nH]c(C(=O)N%11CC(CCl)c%12c%11cc(O)c%11ccccc%12%11)cc%10c9)n(C)c8)n(C)c7)n(C)c6)n(C)c5)n4)n(C)c3)n2)n(C)c1 (stereo not shown) [MYCNA2]
IMR-32 cells; IMR-32 cells, 1 to 100 nM, FIG. 33
  IC50: 12.1 nM
TGW cells
  IC50: 11.2 nM

## CC(=O)Nc1cc(C(=O)Nc2cc(C(=O)Nc3cn(C)c(C(=O)NCCC(=O)Nc4cc(C(=O)Nc5cn(C)c(C(=O)Nc6cn(C)c(C(=O)NCCCC(=O)Nc7cc(C(=O)Nc8cc(C(=O)NCCC(=O)Nc9cn(C)c(C(=O)Nc%10cc(C(=O)Nc%11ccc%12[nH]c(C(=O)N%13CC(CCl)c%14c%13cc(O)c%13ccccc%14%13)cc%12c%11)n(C)c%10)n9)n(C)c8)n(C)c7)n6)n5)n(C)c4)n3)n(C)c2)n(C)c1 (stereo not shown) [P3A-E5K-2]
MCF7 cells
  IC50: > 100 nM

## CC(=O)Nc1cn(C)c(C(=O)Nc2cn(C)c(C(=O)NCCC(=O)Nc3cn(C)c(C(=O)Nc4cn(C)c(C(=O)Nc5cc(C(=O)Nc6cn(C)c(C(=O)NCCCC(=O)Nc7cc(C(=O)Nc8cn(C)c(C(=O)NCCC(=O)Nc9cc(C(=O)Nc%10cc(C(=O)Nc%11ccc%12[nH]c(C(=O)N%13CC(CCl)c%14c%13cc(O)c%13ccccc%14%13)cc%12c%11)n(C)c%10)n(C)c9)n8)n(C)c7)n6)n(C)c5)n4)n3)n2)n1 (stereo not shown) [WT]
LS180 cells; Homo sapiens, WST-8, FIG. 8, read-out: IC50
  IC50: 193 nM

## CC(=O)Nc1cc(C(=O)Nc2cc(C(=O)Nc3cc(C(=O)Nc4cc(C(=O)NCCC(=O)Nc5cc(C(=O)Nc6cc(C(=O)Nc7cc(C(=O)NCCCC(=O)Nc8cn(C)c(C(=O)Nc9cn(C)c(C(=O)NCCC(=O)Nc%10cn(C)c(C(=O)Nc%11cn(C)c(C(=O)Nc%12cc(C(=O)Nc%13ccc%14[nH]c(C(=O)N%15CC(CCl)c%16c%15cc(O)c%15ccccc%16%15)cc%14c%13)n(C)c%12)n%11)n%10)n9)n8)n(C)c7)n(C)c6)n(C)c5)n(C)c4)n(C)c3)n(C)c2)n(C)c1 (stereo not shown) [ALK-FL-1]
Kelly cells
  IC50: 0.09 nM
SK-N-AS cells
  IC50: 2.6 nM
SK-N-SH cells
  IC50: 0.13 nM
IMR-32 cells; IMR-32, IMR32, wild-type ALK neuroblastoma
  IC50: 0.46 nM
MDA-MB-231 cells; wild-type ALK gene
  IC50: 7.5 nM

## CC(=O)Nc1cn(C)c(C(=O)Nc2cc(C(=O)NCCC(=O)Nc3cn(C)c(C(=O)Nc4cn(C)c(C(=O)Nc5cc(C(=O)Nc6cn(C)c(C(=O)NCCCC(=O)Nc7cc(C(=O)Nc8cn(C)c(C(=O)NCCC(=O)Nc9cc(C(=O)Nc%10cc(C(=O)Nc%11ccc%12[nH]c(C(=O)NCCC(=O)N(C)C)cc%12c%11)n(C)c%10)n(C)c9)n8)n(C)c7)n6)n(C)c5)n4)n3)n(C)c2)n1 [C12-Dp]
LS180 cells; 1 nM to 1 μM, FIG. 8
  suppression of the cell growth: suppression of the cell growth was not observed
